As usually defined, the IC50 is the concentration that inhibits the measured activity by half. A lower IC50 goes with greater potency in that assay.

The target in the assay is T1, GlyT1 transporter (Homo sapiens, UniProt P48067).
T1 construct: endogenously expressing the GlyT1 transporter; host or cells: SK-N-MC human neuroblastoma cells
T1 sequence (P48067 1-706): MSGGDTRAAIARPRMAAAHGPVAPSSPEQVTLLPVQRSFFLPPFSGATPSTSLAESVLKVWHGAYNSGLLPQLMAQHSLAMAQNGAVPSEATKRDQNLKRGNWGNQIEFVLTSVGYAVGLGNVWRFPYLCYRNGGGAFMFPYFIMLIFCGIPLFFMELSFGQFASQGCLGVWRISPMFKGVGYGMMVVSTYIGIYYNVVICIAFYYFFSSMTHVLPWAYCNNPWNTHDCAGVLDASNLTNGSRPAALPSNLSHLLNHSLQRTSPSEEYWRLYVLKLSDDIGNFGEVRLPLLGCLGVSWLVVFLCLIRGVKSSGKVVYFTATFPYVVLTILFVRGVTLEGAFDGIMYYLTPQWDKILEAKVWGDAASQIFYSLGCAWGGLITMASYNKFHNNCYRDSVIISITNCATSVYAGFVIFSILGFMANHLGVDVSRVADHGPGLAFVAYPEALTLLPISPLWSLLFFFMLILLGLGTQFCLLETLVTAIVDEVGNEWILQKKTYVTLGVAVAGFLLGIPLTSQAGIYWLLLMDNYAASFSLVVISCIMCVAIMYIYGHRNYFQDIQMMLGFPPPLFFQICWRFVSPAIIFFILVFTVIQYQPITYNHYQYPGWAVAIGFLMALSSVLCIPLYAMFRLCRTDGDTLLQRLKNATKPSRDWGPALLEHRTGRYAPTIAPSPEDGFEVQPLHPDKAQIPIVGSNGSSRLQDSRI
The assay is described as follows: GlyT1 assay: 3H-glycine uptake into SK-N-MC cells (Cytostar-T format). The note with it: glycine uptake in human SK-N-MC cells endogenously expressing GlyT1; 500 nM glycine, 1% DMSO, signal recorded over 60 min. It is filed as cell-based. The source says:
Cells expressing either endogenously the GlyT1 transporter like JAR cells (human placental choriocarcinoma cells; e.g. WO 2008/002583) or SK-N-MC cells (human neuroblastoma cells; Depoortere et al., 2005. Neuropsychopharmacology 30:1963-1985) or primary neurons or cells which have been transfected with a plasmid encoding the cDNA of a functional GlyT1 transporter and stably or transiently express GlyT1 (e.g. WO 2006/08200) can be used to monitor glycine uptake in cells. Different protocols for determination of the glycine uptake into the cells described above can be applied in order to identify and rank compounds which interfere with glycine uptake in the selected cell.
Compounds outlined in the examples below were characterized using human SK-N-MC cells (ATCC number HTB-10) endogenously expressing the GlyT1 transporter which is responsible for the uptake of glycine into these cells and the uptake of glycine into these cells is monitored using the Cytostar-T assay format (GE Healthcare, RPNQ0162) which is based on the radioactive glycine taken up by the cells and brought into proximity with the scintillant contained within the base of the plate. The radioactive decay is converted to a light signal based on the integration of the scintillation matrix into the assay plate. The uptake is recorded as kinetic and the slope of the measured counts over time is used to calculate IC50.
In detail, SK-N-MC cells are seeded into 96-well Cytostar-T assay plates at a density of 200,000 cells/well and grown for 16-18 hours to confluence in growth medium as recommended by ATCC. Before starting the assay, cells are washed once with HBSS (Hank's buffered salt solution; Sigma, H8264) cont. 5 mM alanine (referred in here as HBSS/Ala) and afterwards the following reagents are added: • 1. 80 μl/well HBSS/Ala • 2. 20 μl/well of HBSS/Ala containing 6× the concentration of compound in 6% DMSO • 3. approx. 5-10 min incubation • 4. 20 μl/well 3 μM glycine (^3H-glycine (Perkin Elmer, NET004001MC, specific activity: 52 Ci/mmol; diluted 1:1 with unlabelled glycine) in HBSS/Ala.
In the final assay, glycine concentration is 500 nM (250 nM derived from the ^3H-glycine Perkin Elmer, 250 nM unlabelled glycine), DMSO concentration is 1%.
The assay plate is immediately after addition of the ^3H-glycine placed into a Micro-Beta Counter (Perkin Elmer) and the signal is recorded over 60 min.
To calculate uptake, the slope in the linear range of the kinetics is determined using GraphPadPrism and for the different slopes at the selected concentrations IC50 are calculated by curve fitting using the software GraphPadPrism.
Maximal glycine uptake in every experiment is determined by incubation of SK-N-MC cells with substrate but without inhibitor. Unspecific uptake of glycine by the cells is determined by incubating the cells with substrate and a reference GlyT1 inhibitor e.g. 10 μM RG-1678 (Pinard et al., 2010, J. Med. Chem. 53(12):4603-14).
Compounds are diluted from 10 mM stocks and in general, for IC50 determination 8 compound concentrations are used.
Take `C[C@@H](Oc1ccc(S(C)(=O)=O)cc1C(=O)N1CC2CC2(c2nccc(C(F)(F)F)n2)C1)C(F)(F)F` (mixture of isomers) [Example 72, [5-Methanesulfonyl-2-(2,2,2-trifluoro-1-methyl-ethoxy)-phenyl]-[1-(4-trifluoromethyl-pyrimidin-2-yl)-3-aza-bicyclo[3.1.0]hex-3-yl]-methanone]: half-maximal inhibition (IC50) was put at 17 nM.

Turning to `CCS(=O)(=O)c1ccc(O[C@@H](C)C(F)(F)F)c(C(=O)N2CC3CC3(c3nccc(C(F)(F)F)n3)C2)c1` (mixture of isomers) [Example 73, [5-Ethanesulfonyl-2-(2,2,2-trifluoro-1-methyl-ethoxy)-phenyl]-[1-(4-trifluoromethyl-pyrimidin-2-yl)-3-aza-bicyclo[3.1.0]hex-3-yl]-methanone], the IC50 turned out to be 9 nM.

In turn, `CCS(=O)(=O)c1ccc(O[C@H](C)C(F)(F)F)c(C(=O)N2CC3CC3(c3nccc(C(F)(F)F)n3)C2)c1` (mixture of isomers) [Example 76, [5-Ethanesulfonyl-2-(2,2,2-trifluoro-1-methyl-ethoxy)-phenyl]-[1-(4-trifluoromethyl-pyrimidin-2-yl)-3-aza-bicyclo[3.1.0]hex-3-yl]-methanone] showed an IC50 of 10 nM.

The compound `C[C@@H](Oc1ccc(S(C)(=O)=O)cc1C(=O)N1CC2CC2(c2nccc(C3CC3)n2)C1)C(F)(F)F` (mixture of isomers) [Example 79, [1-(4-Cyclopropyl-pyrimidin-2-yl)-3-aza-bicyclo[3.1.0]hex-3-yl]-[5-methanesulfonyl-2-(2,2,2-trifluoro-1-methyl-ethoxy)-phenyl]-methanone] showed an IC50 of 6 nM.

Regarding `C[C@H](Oc1ccc(S(C)(=O)=O)cc1C(=O)N1CC2CC2(c2coc(C3CC3)n2)C1)C(F)(F)F` (mixture of isomers) [Example 80, [1-(2-Cyclopropyl-oxazol-4-yl)-3-aza-bicyclo[3.1.0]hex-3-yl]-[5-methanesulfonyl-2-((S)-2,2,2-trifluoro-1-methyl-ethoxy)-phenyl]-methanone], the IC50 came out at 3 nM.

For `C[C@@H](Oc1ccc(S(C)(=O)=O)cc1C(=O)N1CC2CC2(c2coc(C3CC3)n2)C1)C(F)(F)F` (mixture of isomers) [Example 81, [1-(2-Cyclopropyl-oxazol-4-yl)-3-aza-bicyclo[3.1.0]hex-3-yl]-[5-methanesulfonyl-2-((S)-2,2,2-trifluoro-1-methyl-ethoxy)-phenyl]-methanone], the IC50 came out at 6 nM.

Compound `C[C@H](Oc1ccc(C#N)cc1C(=O)N1CC2CC2(c2noc(C(F)(F)F)n2)C1)C(F)(F)F` (mixture of isomers) [Example 88, 4-(2,2,2-Trifluoro-1-methyl-ethoxy)-3-[1-(5-trifluoromethyl-[1,2,4]oxadiazol-3-yl)-3-aza-bicyclo[3.1.0]hexane-3-carbonyl]-benzonitrile] showed an IC50 of 168 nM. This IC50 is about 28-fold higher than that of the compound before.

Compound `C[C@@H](Oc1ccc(C#N)cc1C(=O)N1CC2CC2(c2noc(C(F)(F)F)n2)C1)C(F)(F)F` (mixture of isomers) [Example 91, 4-(2,2,2-Trifluoro-1-methyl-ethoxy)-3-[1-(5-trifluoromethyl-[1,2,4]oxadiazol-3-yl)-3-aza-bicyclo[3.1.0]hexane-3-carbonyl]-benzonitrile] registered an IC50 of 112 nM.

`CCS(=O)(=O)c1ccc(O[C@H](C)C(F)(F)F)c(C(=O)N2CC3CC3(c3noc(C(F)(F)F)n3)C2)c1` (mixture of isomers) [Example 92, [5-Ethanesulfonyl-2-(2,2,2-trifluoro-1-methyl-ethoxy)-phenyl]-[1-(5-trifluoromethyl-[1,2,4]oxadiazol-3-yl)-3-aza-bicyclo[3.1.0]hex-3-yl]-methanone] returned an IC50 of 25 nM.

Regarding `CC(C)COc1ccc(S(C)(=O)=O)cc1C(=O)N1CC2CC2(c2noc(C(F)(F)F)n2)C1` (racemic) [Example 95, (2-Isobutoxy-5-methxnesulfonyl-phenyl)-[1-(5-trifluoromethyl-[1,2,4]oxadiazol-3-yl)-3-aza-bicyclo[3.10]hex-3-yl]-methanone], half-maximal inhibition (IC50) was put at 131 nM.

With `CC(C)Oc1ccc(S(C)(=O)=O)cc1C(=O)N1CC2CC2(c2noc(C(F)(F)F)n2)C1` (racemic) [Example 96, (2-Isopropoxy-5-methanesulfonyl-phenyl)-[1-(5-trifluoromethyl-[1,2,4]oxadiazol-3-yl)-3-aza-bicyclo[3.1.0]hex-3-yl]-methanone], the concentration for half-maximal inhibition (IC50) came out at 27 nM.

`CC1(C)Cc2cc(S(C)(=O)=O)cc(C(=O)N3CC4CC4(c4noc(C(F)(F)F)n4)C3)c2O1` (racemic) [Example 99, (5-Methanesulfonyl-2,2-dimethyl-2,3-dihydro-benzofuran-7-yl)-[1-(5-trifluoromethyl-[1,2,4]oxadiazol-3-yl)-3-aza-bicyclo[3.1.0]-3-yl]-methanone]: the IC50 came to 291 nM.

`C[C@H](Oc1ccc(-c2ncco2)cc1C(=O)N1CC2CC2(c2noc(C(F)(F)F)n2)C1)C(F)(F)F` (mixture of isomers) [Example 100, [5-Oxazol-2-yl-2-(2,2,2-trifluoro-1-methyl-ethoxy)-phenyl]-[1-(5-trifluoromethyl-[1,2,4]oxadiazol-3-yl)-3-aza-bicyclo[3.1.0]hex-3-yl]-methanone] yielded an IC50 of 916 nM.

On to `Cc1nc(C23CC2CN(C(=O)c2cc(S(C)(=O)=O)ccc2O[C@H](C)C(F)(F)F)C3)no1` (mixture of isomers) [Example 101, [5-Methanesulfonyl-2-(2,2,2-trifluoro-1-methyl-ethoxy)-phenyl]-[1-(5-methyl-[1,2,4]oxadiazol-3-yl)-3-aza-bicyclo[3.1.0]hex-3-yl]-methanone], for which the IC50 came to 15 nM.

Take `CCS(=O)(=O)c1ccc(O[C@@H](C)C(F)(F)F)c(C(=O)N2CC3CC3(c3cc(C(F)(F)F)on3)C2)c1` (mixture of isomers) [Example 102, [5-Ethanesulfonyl-2-(2,2,2-trifluoro-1-methyl-ethoxy)-phenyl]-[1-(5-trifluoromethyl-isoxazol-3-yl)-3-aza-bicyclo[3.1.0]hex-3-yl]-methanone]: the IC50 was 18 nM.

Take `CCS(=O)(=O)c1ccc(O[C@H](C)C(F)(F)F)c(C(=O)N2CC3CC3(c3cc(C(F)(F)F)on3)C2)c1` (mixture of isomers) [Example 105, [5-Ethanesulfonyl-2-(2,2,2-trifluoro-1-methyl-ethoxy)-phenyl]-[1-(5-trifluoromethyl-isoxazol-3-yl)-3-aza-bicyclo[3.1.0]hex-3-yl]-methanone]: inhibition was half-maximal at 7 nM (IC50).

As for `Cc1conc1C12CC1CN(C(=O)c1cc(S(C)(=O)=O)ccc1O[C@@H](C)C(F)(F)F)C2` (mixture of isomers) [Example 108, [5-Methanesulfonyl-2-(2,2,2-trifluoro-1-methyl-ethoxy)-phenyl]-[1-(4-methyl-isoxazol-3-yl)-3-aza-bicyclo[3.1.0]hex-3-yl]-methanone], the IC50 stood at 10 nM.

Turning to `C[C@H](Oc1ccc(S(C)(=O)=O)cc1C(=O)N1CC2CC2(c2nocc2C(F)(F)F)C1)C(F)(F)F` (mixture of isomers) [Example 109, [5-Methanesulfonyl-2-(2,2,2-trifluoro-1-methyl-ethoxy)-phenyl]-[1-(4-trifluoromethyl-isoxazol-3-yl)-3-aza-bicyclo[3.1.0]hex-3-yl]-methanone], the IC50 worked out at 45 nM.
